# Data: patent US6017933A, “Mannich bases of conjugated styryl ketones” (University of Saskatchewan Technologies Inc., priority 1999, dated 2000)
# “And” between values parts separate entries of the source, which are not always exact repeats. Equal entries are not always repeated. “Also recorded” adds a separate entry of the source. Structures can show the parent of a compound that is named as a salt. Where two headings read alike, the source gives them in different places.
# Columns and labels:
# [1] = system: P388 cells; experiment: Cytotoxicity, murine P388 leukemic cells (P388 D1); settings: read-out: P388 cells IC50
# [2] = system: L1210 cells; experiment: Cytotoxicity, murine L1210 leukemic cells; assay type: cell-based; settings: Mus musculus, mean
# [3] = system: CEM cells; experiment: Cytotoxicity, CEM human T-lymphocytes; settings: for IC50: Homo sapiens, CCRF-CEM; for TIL1210 (CEM cells): IC50 T-lymphocytes (CEM)/IC50 L1210; for TIP388 (CEM cells): IC50 T-lymphocytes (CEM)/IC50 P388
# [4] = system: human WiDr colon cancer; settings: hydrobromide salt; human WiDr colon cancer in vitro; cited from earlier work
# [5] = system: Molt 4/C8 cells; experiment: Cytotoxicity, Molt 4/C8 human T-lymphocytes; settings: for TIL1210 (Molt 4/C8 cells): IC50 T-lymphocytes (Molt 4/C8)/IC50 L1210; for TIP388 (Molt 4/C8 cells): IC50 T-lymphocytes (Molt 4/C8)/IC50 P388
# [6] = system: ITZ-resistant Aspergillus fumigatus; experiment: MIC and MLC, ITZ-resistant Aspergillus fumigatus, broth macrodilution; settings: for MIC: 48 h
# [7] = system: Aspergillus fumigatus; experiment: Murine pulmonary aspergillosis model; assay type: in vivo, Aspergillus fumigatus in DBA/2J female mice
# Experimental: In vivo susceptibility studies: DBA/2J female mice (Jackson Laboratories) weighing 20-23 grams (≈6 weeks old) were used. The mice were immunosuppressed by 3 consecutive subcutaneous injections (0.5 ml each) of cortisone acetate (250 mg/kg; Sigma Chemical Company) in sterile distilled water containing 0.1% Tween 80. The immunosuppressed mice were anesthetized by exposing to ether in a desiccator for 45±5 seconds and infected with 20 μl inoculum containing 1×10^6 conidia delivered to the nares of the animals as a single droplet from a micropipet. Compound 9b and AMB were dissolved in dimethyl sulfoxide (DMSO) and administered 24 hr post infection by intraperitoneal injection in 0.2 ml PBS per dose. […] The efficacy of chemotherapy was assessed by determining percent survival and the fungal load (CFU/lungs) of infected animals as determined by semiquantitative organ culture.
# [8] = system: Aspergillus fumigatus; experiment: MIC and MLC, Aspergillus fumigatus, broth macrodilution
# [9] = system: AMB-resistant Aspergillus fumigatus; experiment: MIC and MLC, AMB-resistant Aspergillus fumigatus, broth macrodilution; settings: for MIC: 48 h
# [10] = system: Aspergillus fumigatus conidia; experiment: Kill-curve experiment, Aspergillus fumigatus conidia; assay type: cell-based
# Experimental: Kill-Curve Experiment: 5 ml conidial suspension each of the AMB-, and ITZ-susceptible (W73355) and the resistant (AB16.4 and ITZ70) isolates prepared in PYG broth (1×10^6 conidia/ml) was incubated at 35° C. in the presence of 5 μm of AMB or 5 μm ITZ or 50 μm Compound 9b. At various time intervals, 0.1 ml aliquots of the conidial suspension were removed, diluted appropriately to obtain 10^2 to 10^4 fold dilution, and 0.1 ml aliquots were spread in duplicate on PYG agar plates. […] Identical treatment of the conidial suspension in the absence of the drug was used as the growth control.
# [11] = system: pathogenic yeasts and filamentous fungi; experiment: Screening of conjugated styryl ketones against pathogenic yeasts and filamentous fungi; assay type: cell-based
# Text: Approximately 90 compounds belonging to the conjugated styryl ketone class were screened for their activity against pathogenic yeasts and filamentous fungi. […] Since none of the previously examined compounds provided encouraging results for further studies, a series of α,β-unsaturated ketones with two sites for thiol alkylation reaction were synthesized.
# [12] = system: human tumors; experiment: Cytotoxicity, human tumor cell line panel (approximately 55 lines)
# [13] = system: Candida albicans; experiment: Vaginal candidiasis in ovariectomized rats; assay type: in vivo, Candida albicans in ovariectomized rats; settings: in Mineral Oil
# Experimental: As well, ovariectomized rats predisposed for Candida albicans infection by estrogen treatment were infected vaginally with 1×10^7 CFU per ml to produce vaginal candidiasis. The infected animals were treated with Compound 9b once daily (100 mg/kg=2 mg/[…]) for 5 days. Vaginal fluid was collected from each animal 72 hr post-treatment and CFUs per rat were determined by plating the […] fluid on PYG agar containing 200 ug/ml gentamicin.
smiles,measurement,setting,value
CCN(CC)CC(C)(C)C(=O)/C=C/c1ccc(Cl)cc1 [Compound 7],IC50,[1],2.2 µM
same,IC50,[2],6.39 µM
same,IC50,[3]; read-out: CEM cells IC50,1.94 µM
same,TIL1210 (CEM cells),[3],0.30
same,TIP388 (CEM cells),[3],0.88
same,activity relative to 5-fluorouracil,[4],1.3 times
same,TIL1210 (Molt 4/C8 cells),[5],1.13
same,TIP388 (Molt 4/C8 cells),[5],3.29
same,TIP388 and TIL1210 compared with compound 1b,[5]; human T-lymphocytes,inferior TIP388 and TIL1210 values than compound 1b
same,IC50,[5]; read-out: Molt 4/C8 cells IC50,7.24 µM
"CCN1CCC(O)(/C=C/c2ccc(Cl)cc2)C(C(=O)/C=C/c2ccc(Cl)cc2)C1 (centres unmarked) [Compound 9b, (3-[3-(4-chlorophenyl)-2-propenoyl]-4-[2-(4-chlorophenyl)vinylene]-1-ethyl-4-piperidinol hydrochloride]",IC50,[1],1.1 µM
same,MIC,[6]; read-out: MIC Mean ± SD,10.9 ± 6.35 µM
same,MIC,[6]; read-out: MIC Range,3.12 to 25 µM
same,MFC,[6]; read-out: MLC Range,6.25 to 25 µM
same,IC50,[2],6.96 µM
same,IC50,[3]; read-out: CEM cells IC50,20.1 µM
same,IC50,[3]; read-out: IC50 CEM,20.1 µM
same,TIL1210 (CEM cells),[3],2.89
same,TIP388 (CEM cells),[3],18.31
same,TIht (CEM cells),[3]; IC50 T-lymphocytes (CEM)/IC50 human tumors,0.78
same,TIL1210 (Molt 4/C8 cells),[5],4.46
same,TIP388 (Molt 4/C8 cells),[5],28.24
same,TIht (Molt 4/C8 cells),[5]; IC50 T-lymphocytes (Molt 4/C8)/IC50 human tumors,1.21
same,IC50,[5]; read-out: IC50 Molt 4/C8,31.1 µM
same,IC50,[5]; read-out: Molt 4/C8 cells IC50,31.1 µM
same,reduction in CFU/lung,[7]; 6.25 mg/kg/day,50%
same,mortality rate,"[7]; 6.5 mg/kg/day for five days, mice",did not show any greater mortality rate than the placebo or the AMB-treated groups
same,fungal load of infected animals (in words),"[7]; mouse, in vivo, hydrochloride",reduced significantly; also recorded: not as efficient as AMB for the reduction of fungal load
same,survival of infected animals,[7]; vs DMSO placebo,did not improve significantly over the placebo group
same,MIC,"[8]; Aspergillus fumigatus, 48 h, read-out: MIC Mean ± SD",11.9 ± 5.32 µM
same,MIC,"[8]; Aspergillus fumigatus, 48 h, read-out: MIC Range",6.25 to 25 µM
same,MFC,"[8]; Aspergillus fumigatus, read-out: MLC Range",12.5 to 25 µM
same,MIC,"[8]; Aspergillus fumigatus, read-out: mean MIC value",11.9 µM
same,effectiveness compared with ITZ and AMB,[8]; susceptible isolates,less effective than ITZ and AMB in susceptible isolates
same,MLC values relative to MIC values,[8]; various Aspergillus fumigatus isolates,either the same as or twofold higher than the MIC values
same,MIC,[9]; read-out: MIC Mean ± SD,9.85 ± 3.53 µM
same,MIC,[9]; read-out: MIC Range,6.25 to 12.5 µM
same,MFC,[9]; read-out: MLC Range,12 to 25 µM
same,killing at 50 µM,"[10]; Aspergillus fumigatus, 50 μm, within 24 hr",≥ 90%
same,fungicidal activity against AMB-resistant and ITZ-resistant isolates,[10]; data not shown,as susceptible to the fungicidal activity of Compound 9b as the susceptible one
same,antifungal activity (in words),[11],activity against both pathogenic yeasts and filamentous fungi at low concentrations
same,IC50 relative to mean MIC for Aspergillus fumigatus,[12]; mammalian cells (human tumor; b359 also Molt 4/C8 and CEM),2-3 fold
same,IC50,"[12]; read-out: human tumors IC50, mean graph midpoint, approximately 55 cell lines, hydrobromide salts used for 4a, 11a-e",25.7 µM
same,IC50,[12]; read-out: mean IC50 value for 55 different human tumour cells,25.7 µM
same,% CFU reduction,[13],97.4%
same,Mean Value CFU/rat,"[13]; mean of 6 animals, S.D. 1.7 × 10^4",1.2 × 10^4 CFU/rat
same,CFU/rat,"[13]; individual animals, 100 mg/kg once daily for 5 days, 72 hr post-treatment, hydrochloride, 100 mg/kg",4.6 × 10^4 CFU/rat and 4.2 × 10^3 CFU/rat and 8.3 × 10^2 CFU/rat and 1.7 × 10^4 CFU/rat and 3.5 × 10^2 CFU/rat and 6.5 × 10^3 CFU/rat
